Measurements reported in ChEMBL document CHEMBL1155535, “Synthesis and biological evaluation of tricyclic anilinopyrimidines as IKKbeta inhibitors” (Bioorg Med Chem Lett, 2010).
Values after ≈ are worked out from the molar mass of the structure shown.

Columns and labels:
[1] = target: T1, Inhibitor of nuclear factor kappa-B kinase subunit beta (Homo sapiens, UniProt O14920); experiment: Inhibition of FLAG-tagged IKK-beta after 30 mins
T1 sequence (O14920 whole entry): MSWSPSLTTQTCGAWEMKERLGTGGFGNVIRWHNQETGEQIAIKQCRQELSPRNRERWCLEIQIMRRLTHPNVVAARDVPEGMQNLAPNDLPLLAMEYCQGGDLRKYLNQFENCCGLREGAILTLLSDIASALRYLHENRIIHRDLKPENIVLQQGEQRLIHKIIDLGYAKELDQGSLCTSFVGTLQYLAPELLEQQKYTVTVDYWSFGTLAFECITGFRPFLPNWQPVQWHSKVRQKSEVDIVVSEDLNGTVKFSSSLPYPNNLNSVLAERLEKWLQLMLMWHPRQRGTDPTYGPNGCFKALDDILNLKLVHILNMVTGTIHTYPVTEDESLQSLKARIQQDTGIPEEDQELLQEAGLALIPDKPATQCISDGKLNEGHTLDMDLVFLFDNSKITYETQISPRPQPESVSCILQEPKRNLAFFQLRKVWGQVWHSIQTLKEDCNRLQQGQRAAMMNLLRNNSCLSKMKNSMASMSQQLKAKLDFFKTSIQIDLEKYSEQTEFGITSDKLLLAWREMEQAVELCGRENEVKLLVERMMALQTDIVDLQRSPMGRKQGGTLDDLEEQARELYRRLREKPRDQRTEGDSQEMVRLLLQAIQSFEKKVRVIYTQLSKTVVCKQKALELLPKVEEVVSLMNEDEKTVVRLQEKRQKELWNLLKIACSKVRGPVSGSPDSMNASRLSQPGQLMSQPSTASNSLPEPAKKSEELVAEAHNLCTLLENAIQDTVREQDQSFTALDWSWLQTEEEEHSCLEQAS

[2] = target: T1, Inhibitor of nuclear factor kappa-B kinase subunit beta; experiment: Inhibition of IKK-beta expressed in human HeLa cells transfected with pNFkappaB-luciferase assessed inhibition of TNF-alpha-induced NF-kappaB expression by luciferase reporter gene assay; format: cell-based
[3] = Membrane permeability by PAMPA assay
[4] = system: LoVo; experiment: Cytotoxicity against human LoVo cells assessed as growth inhibition; format: functional, cell-based
[5] = Aqueous solubility in at pH 7.4
[6] = Apparent permeability from apical to basolateral side in human Caco-2 cells
[7] = Apparent permeability from basolateral to apical side in human Caco-2 cells

| IC50 [1] [µM] | IC50 [2] [µM] | Papp [3] [×10⁻⁶ cm/s] | solubility [5] [µg/mL] | Papp A→B [6] [×10⁻⁶ cm/s] | Papp B→A [7] [×10⁻⁶ cm/s] | SMILES | IC50 [4] [µM] |
| --- | --- | --- | --- | --- | --- | --- | --- |
| 0.04 | 0.64 | < 0.01 | 2.3 (≈ 6.45 µM) |  |  | COc1ccc(-c2ccnc(Nc3ccc(S(N)(=O)=O)cc3)n2)cc1 | 2.55 |
| 0.55 | 0.42 | 1.8 | < 1 |  |  | COc1ccc2c(c1)CCc1cnc(Nc3ccc(S(N)(=O)=O)cc3)nc1-2 | 0.75 |
| 0.01 | 2.46 | 0.6 | < 1 |  |  | CC(C)(C)CC(=O)Nc1ccc(-c2ccnc(Nc3ccc(S(N)(=O)=O)cc3)n2)cc1 | 0.79 |
| 1.59 | 8.25 |  |  |  |  | CC(C)=CC(=O)Nc1ccc2c(c1)CCc1cnc(Nc3ccc(S(N)(=O)=O)cc3)nc1-2 | 0.56 |
| 2.2 | 1.57 |  |  |  |  | NS(=O)(=O)c1ccc(Nc2ncc3c(n2)-c2ccc(NC(=O)C4CCCC4)cc2CC3)cc1 | 0.83 |
| 1.11 | 1.46 |  |  |  |  | CC(C)C(=O)Nc1ccc2c(c1)CCc1cnc(Nc3ccc(S(N)(=O)=O)cc3)nc1-2 | 0.66 |
| 0.28 |  |  |  |  |  | COC(=O)CC(=O)Nc1ccc2c(c1)CCc1cnc(Nc3ccc(S(N)(=O)=O)cc3)nc1-2 | 0.62 |
| 1.83 | 1.6 |  |  |  |  | COc1ccc(CC(=O)Nc2ccc3c(c2)CCc2cnc(Nc4ccc(S(N)(=O)=O)cc4)nc2-3)cc1 | 0.73 |
| 1.94 | 6.4 |  |  |  |  | CC(C)CC(=O)Nc1ccc2c(c1)CCc1cnc(Nc3ccc(S(N)(=O)=O)cc3)nc1-2 | 0.38 |
| 0.05 | 4.47 | < 0.01 | 1 (≈ 2.18 µM) |  |  | NS(=O)(=O)c1ccc(Nc2nccc(-c3ccc(NC(=O)Cc4ccccc4)cc3)n2)cc1 | 0.18 |
| 1.83 | 1.43 | 2.92 | 7 (≈ 19.9 µM) |  |  | NS(=O)(=O)c1ccc(Nc2ncc3c(n2)-c2ccccc2CC3)cc1 | 1.05 |
|  | 4.06 |  |  |  |  | NS(=O)(=O)c1ccc(Nc2ncc3c(n2)-c2ccccc2CCC3)cc1 | 4.18 |
| 0.51 | 0.83 | 0.51 | 6 (≈ 12.2 µM) |  |  | NS(=O)(=O)c1ccc(Nc2ncc3c(n2)-c2ccc(NC(=O)Cc4cccs4)cc2CC3)cc1 | 0.29 |
| 0.31 | 0.97 |  |  |  |  | NS(=O)(=O)c1ccc(Nc2ncc3c(n2)-c2ccc(NC(=O)Cc4ccsc4)cc2CC3)cc1 | 0.49 |
| 20.2 |  | 2.26 | 1 (≈ 3.06 µM) |  |  | NS(=O)(=O)c1ccc(Nc2nccc(-c3ccccc3)n2)cc1 | 3.28 |
| 2.38 | 1.79 | 3.37 | 9 (≈ 18.5 µM) |  |  | NS(=O)(=O)c1ccc(Nc2ncc3c(n2)-c2ccc(NC(=O)Cc4ccccc4)cc2CC3)cc1 | 0.19 |
| 0.02 | 6.91 | 0.3 | < 1 |  |  | NS(=O)(=O)c1ccc(Nc2nccc(-c3ccc(NC(=O)Cc4cccs4)cc3)n2)cc1 | 0.25 |
| 0.78 | 0.62 |  |  |  |  | CN(C)CCCNS(=O)(=O)c1ccc(Nc2ncc3c(n2)-c2ccsc2CC3)cc1 | 1.1 |
| 0.13 | 3.39 |  |  |  |  | O=S(=O)(NCCO)c1ccc(Nc2nccc(-c3ccsc3)n2)cc1 | 4.11 |
| 1.22 | 1.96 |  |  |  |  | O=S(=O)(NCCO)c1ccc(Nc2ncc3c(n2)-c2ccsc2CC3)cc1 | 0.8 |
| 0.79 | 0.8 | 0.38 | < 1 | 34 | 20.7 | NS(=O)(=O)c1ccc(Nc2ncc3c(n2)-c2ccsc2CC3)cc1 | 0.33 |
| 0.17 | 1.06 |  |  |  |  | CN(C)CCCNS(=O)(=O)c1ccc(Nc2nccc(-c3ccsc3)n2)cc1 | 3.38 |
| 0.23 | 0.77 | 2.4 | > 100 | < 1 | 13.2 | CN(C)CCNS(=O)(=O)c1ccc(Nc2nccc(-c3ccsc3)n2)cc1 | 2.81 |
| 0.77 | 0.51 | 1.54 | 36 (≈ 83.8 µM) | < 1 | 3.08 | CN(C)CCNS(=O)(=O)c1ccc(Nc2ncc3c(n2)-c2ccsc2CC3)cc1 | 0.68 |
| 0.82 | 1.36 | 2.3 | 9 (≈ 19.3 µM) |  |  | CC(C)(C)CC(=O)Nc1ccc2c(c1)CCc1cnc(Nc3ccc(S(N)(=O)=O)cc3)nc1-2 | 0.37 |
| 2.23 |  |  |  |  |  | NS(=O)(=O)c1ccc(Nc2ncc3c(n2)-c2ccc(NC(=O)c4ccco4)cc2CC3)cc1 | 1.06 |
| 0.019 | 1.71 |  | 3 (≈ 8.66 µM) |  |  | Cc1ccc(-c2ccnc(Nc3ccc(S(N)(=O)=O)cc3)n2)s1 | 1.66 |

| SMILES | IC50 [1] [µM] | IC50 [2] [µM] | Papp [3] [×10⁻⁶ cm/s] | solubility [5] [µg/mL] | Papp A→B [6] [×10⁻⁶ cm/s] | Papp B→A [7] [×10⁻⁶ cm/s] | IC50 [4] [µM] |
| --- | --- | --- | --- | --- | --- | --- | --- |
| NS(=O)(=O)c1ccc(Nc2nccc(-c3ccsc3)n2)cc1 | 0.18 | 1.7 |  |  |  |  | 2.62 |
